From publication PMC7913621 (Molecules, 2021)

Key:
bone osteosarcoma U-2 OS = test: MTT cell viability assay, U-2 OS; type: cell-based, human; conditions: 72 h, median (95% Confidence Intervals)
Protocol: (§1) The following human cell lines were used in this study: (i) epidermoid carcinoma A-431 (ATCC® CRL-1555), (ii) lung carcinoma A549 (ATCC® CCL-185), (iii) colorectal carcinoma HCT116 (ATCC® CCL-247), (iv) HCT116p53^−/−, (v) glioblastoma U-87 MG (ATCC® HTB-14), (vi) glioblastoma U-251 MG (ECACC 09063001), (vii) breast adenocarcinoma MCF7 (ATCC® HTB-22), (viii) breast adenocarcinoma MDA-MB-231 (ECACC 92020424), (ix) papillomavirus-related cervical squamous cell carcinoma SKG-IIIa (RRID:CVCL_1704), (x) cervical adenocarcinoma HeLa (ATCC® CCL-2), (xi) bone osteosarcoma U-2 OS (ATCC® HTB-96), (xii) hepatocellular carcinoma HEPG2 (ATCC® HB-8065), (xiii) larynx squamous cell carcinoma BICR 18 (ECACC 06051601), (ix) kidney HEK 293T (ATCC® CRL-11268), (xv) normal lung fibroblasts MRC-5 (ATCC® CCL-171), (xvi) normal fibroblasts BJ (ATCC® CRL-2522). The HCT116p53^−/− cell line was a kind gift from professor Bert Vogelstein (John Hopkin’s University, Baltimore, MD, USA). The remaining cell lines were purchased from ATCC (Manassas, VA, USA) or Sigma-Aldrich by Merck (Darmstadt, Germany).
(§2) Cells were cultured in minimal or Dulbecco’s modified Eagle’s or Ham’s F10 medium supplemented with 10% fetal bovine serum (Gibco by Thermo Fisher Scientific, Waltham, MA, USA) and (for BICR 18) 0.4 μg/mL hydrocortizone (Sigma-Aldrich by Merck, Darmstadt, Germany) under standard culture conditions (37 °C, 5% CO2) in a humidified incubator with an atmospheric oxygen.
(§3) The viability of cells was assayed by measuring the conversion of MTT (3-(4,5-dimethylthiazol-2-yl)-2,5-diphenyltetrazolium bromide) to the formazan (the rate of this reaction is proportional to the number of surviving cells). Cells were seeded in a 96-well plate at a density of 2500–3500 cells per well, 24 h before treatment. […] MTT stock solution (Sigma-Aldrich) was added at the final concentration 0.5 mg/mL. After 4 h of incubation at 37 °C, water-insoluble formazan was dissolved in a lysis buffer containing 20% SDS, 50% DMF, 2.5% hydrochloric acid and 2.5% acetic acid. Optical densities were measured at 570 nm using a scanning multi-well spectrophotometer ([…] Detection Platform; Beckman Coulter, Brea, CA, USA). At least three independent experiments of viability were conducted.

glioblastoma U-87 MG = test: MTT cell viability assay, U-87 MG; type: cell-based, human; conditions: 72 h, median (95% Confidence Intervals)
Protocol: as §1, §2, §3

[1] = tested on: colorectal carcinoma HCT116; test: MTT cell viability assay, HCT116; type: cell-based, human; conditions: median (95% Confidence Intervals)
Protocol: as §1, §2, §3

[2] = tested on: normal lung fibroblasts MRC-5; test: MTT cell viability assay, MRC-5; type: cell-based, human; conditions: MRC-5, MTT, 72 h, median (95% Confidence Intervals)
Protocol: as §1, §2, §3

[3] = tested on: colorectal carcinoma HCT116p53^−/−; test: MTT cell viability assay, HCT116p53−/−; type: cell-based, human; conditions: 72 h, median (95% Confidence Intervals)
Protocol: as §1, §2, §3

[4] = biological target: T1, recombinant human PDE5A/PDE5 protein (Homo sapiens, UniProt O76074); test: colorimetric PDE Activity Assay Kit (Abcam), PDE5 inhibition; type: biochemical; conditions: for IC50: 200 μM cGMP, 40 ng enzyme, 20 min at 37 °C, 4% DMSO, read-out: IC50 against human PDE5; for Ki: read-out: Ki against human PDE5
T1 construct: purchased Abcam
Protocol: A high concentration of cGMP substrate was used (200 μM) due to the moderate sensitivity of the aforementioned assay.
The inhibitory effect of the tested compounds was measured using colorimetric PDE Activity Assay Kit (Abcam, Cambridge, UK). This assay allows the quantification of 5′-nucleotide released in the reaction catalyzed by tested phosphodiesterase, PDE5, using the additional enzyme 5′-nucleotidase to cleave the mentioned product, and next, using modified Malachite Green assay, the phosphate is quantified. The assay was carried in a 96-well plate at a volume of 40 μL in an assay buffer, containing 40 ng recombinant human PDE5A/PDE5 protein (Abcam), 200 μM cGMP, 25 kU 5′-nucleotidase and serially diluted ligand to preserve 4% of DMSO. The reaction was initiated with the enzyme and kept going for 20 min at 37 °C. The reaction was stopped by adding 80 μL of Green Assay reagent. After incubation at room temperature for 30 min (to develop color proportional to phosphate content), the absorbance at 620 nm was measured with The SpectraMax iD3 Multi-Mode Microplate Reader (Molecular Devices, San Jose, CA, USA). Inhibitors concentrations varied in the range of 2 pM–200 μM. Each experiment was repeated 4–5 times and IC50 values were calculated by global fitting of the sigmoidal dose response equation implemented in Origin 9.0 package (www.originlab.com). For each experiment, control reaction with no enzyme added and without inhibitor was also performed.

lung carcinoma A549 = test: MTT cell viability assay, A549; type: cell-based, human; conditions: 72 h, median (95% Confidence Intervals)
Protocol: as §1, §2, §3

[5] = tested on: hepatocellular carcinoma HEPG2; test: MTT cell viability assay, HEPG2; type: cell-based, human; conditions: 72 h, median (95% Confidence Intervals)
Protocol: as §1, §2, §3

[6] = tested on: larynx squamous cell carcinoma BICR 18; test: MTT cell viability assay, BICR 18; type: cell-based, human; conditions: BICR 18, MTT, 72 h, median (95% Confidence Intervals)
Protocol: as §1, §2, §3

[7] = tested on: epidermoid carcinoma A-431; test: MTT cell viability assay, A-431; type: cell-based, human; conditions: A-431, MTT, 72 h, median (95% Confidence Intervals)
Protocol: as §1, §2, §3

[8] = tested on: cervical squamous cell carcinoma SKG-IIIa; test: MTT cell viability assay, SKG-IIIa; type: cell-based, human; conditions: SKGIIIa, 72 h, median (95% Confidence Intervals)
Protocol: as §1, §2, §3

[9] = tested on: cervical adenocarcinoma HeLa; test: MTT cell viability assay, HeLa; type: cell-based, human; conditions: 72 h, median (95% Confidence Intervals)
Protocol: as §1, §2, §3

kidney HEK 293T = test: MTT cell viability assay, HEK 293T; type: cell-based, human; conditions: 72 h, median (95% Confidence Intervals)
Protocol: as §1, §2, §3

normal fibroblasts BJ = test: MTT cell viability assay, BJ; type: cell-based, human; conditions: 72 h, median (95% Confidence Intervals)
Protocol: as §1, §2, §3

[10] = tested on: breast adenocarcinoma MCF7; test: MTT cell viability assay, MCF7; type: cell-based, human; conditions: 72 h, median (95% Confidence Intervals)
Protocol: as §1, §2, §3

glioblastoma U-251 MG = test: MTT cell viability assay, U-251 MG; type: cell-based, human; conditions: 72 h, median (95% Confidence Intervals)
Protocol: as §1, with “The remaining cell lines were purchased from ATCC (Manassas, VA, USA) or Sigma-Aldrich by Merck (Darmstadt, Germany).” left out
The viability of cells was assayed by measuring the conversion of MTT (3-(4,5-dimethylthiazol-2-yl)-2,5-diphenyltetrazolium bromide) to the formazan (the rate of this reaction is proportional to the number of surviving cells). […] Optical densities were measured at 570 nm using a scanning multi-well spectrophotometer ([…] Detection Platform; Beckman Coulter, Brea, CA, USA). […]

[11] = tested on: breast adenocarcinoma MDA-MB-231; test: MTT cell viability assay, MDA-MB-231; type: cell-based, human; conditions: MDA-MB-231, MTT, 72 h; median (95% Confidence Intervals)
Protocol: as §1, §2, §3

Row | IC50 (bone osteosarcoma U-2 OS; Homo sapiens, U2OS) | IC50 (glioblastoma U-87 MG; Homo sapiens) | IC50 ([1]; Homo sapiens, HCT-116, 72 h) | IC50 ([3]; Homo sapiens) | IC50 [4] | Ki [4] | IC50 ([7]; Homo sapiens) | IC50 ([8]; Homo sapiens) | IC50 ([9]; Homo sapiens) | IC50 ([10]; Homo sapiens) | SMILES | IC50 (kidney HEK 293T; Homo sapiens) | other results
1 | 95.4 µM | 110 µM | 53 µM | 35.9 µM | 22 ± 12 µM | 220 ± 170 nM | 63.6 µM | 75.9 µM | 79.2 µM | 28.9 µM | CN1CC(=O)N(Cc2cc3c(cc2Br)OCO3)[C@H](Cc2c[nH]c3ccccc23)C1=O [Compound 7a, (R)-3-((1H-indol-3-yl)methyl)-4-((6-bromobenzo[d][1,3]dioxol-5-yl)methyl)-1-methylpiperazine-2,5-dione] | 12.3 µM | IC50 ([2]; Homo sapiens, MRC5): 116 µM; times less effective than tadalafil as PDE5 inhibitor ([4]; compared with tadalafil, human PDE5): over 300; IC50 (lung carcinoma A549; Homo sapiens): 128 µM; IC50 ([5]; Homo sapiens): 103 µM; IC50 ([6]; Homo sapiens): 137 µM; IC50 (normal fibroblasts BJ; Homo sapiens, Fibroblast): 117 µM
2 | 93.5 µM | 153 µM | 102 µM | 83.2 µM | 137 ± 47 µM | 1400 ± 800 nM | 104 µM | 146 µM | 120 µM | 53.2 µM | CN1CC(=O)N(Cc2ccc3c(c2)OCO3)[C@H](Cc2c[nH]c3ccccc23)C1=O [Compound 6a, (R)-3-((1H-indol-3-yl)methyl)-4-(benzo[d][1,3]dioxol-5-ylmethyl)-1-methylpiperazine-2,5-dione] | 10.5 µM | 
3 |  |  |  |  |  |  |  |  |  |  | N.N.[Cl][Pt][Cl] [Cisplatin, cisplatin, reference compound] |  | IC50 (bone osteosarcoma U-2 OS): 7.55 µM; IC50 (glioblastoma U-87 MG): 4.96 µM; IC50 ([1]; 72 h): 7.44 µM; IC50 [2]: 3.92 µM; IC50 [3]: 14.1 µM; IC50 (glioblastoma U-251 MG): 2610 nM; IC50 (lung carcinoma A549): 27.2 µM; IC50 [5]: 7.8 µM; IC50 [11]: 22.3 µM; IC50 [6]: 1.69 µM; IC50 [7]: 1.51 µM; IC50 [8]: 4.84 µM; IC50 [9]: 13.5 µM; IC50 (kidney HEK 293T): 6.25 µM; IC50 (normal fibroblasts BJ): 5.58 µM; IC50 [10]: 11 µM
